In brackets after ≈: the same amount, converted by molar mass. Read-outs that look alike come from different tables or passages of the source.
Tests used:
Assay type in all cases: cell-based
[1] = system: Streptococcus pyogenes 1079; assay: MIC, microtiter broth dilution (NCCLS M100-S14), S. pyogenes 1079 (ermB)
Summary of the method: (§1)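 Panel strains, including macrolide-resistant isolates and their susceptible parents where available, are exposed to serial compound dilutions in microtiter trays. Growth inhibition is scored as MIC under NCCLS M100-S14 standards.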

[2] = system: Streptococcus pneumoniae 1016; assay: MIC, microtiter broth dilution (NCCLS M100-S14), S. pneumoniae 1016 (susceptible)
Summary of the method: as §1

[3] = system: Streptococcus pneumoniae 1095; details: microtiter broth dilution
Summary of the method: as §1

[4] = system: Streptococcus pneumoniae 1175; details: microtiter broth dilution
Summary of the method: as §1

[5] = system: Haemophilus influenzae 1218; assay: MIC, microtiter broth dilution (NCCLS M100-S14), H. influenzae 1218 (susceptible)
Summary of the method: as §1

[6] = S. pneumoniae 1016 (susceptible)
[7] = H. influenzae 1218 (susceptible)

| SMILES | MIC S. pyogenes 1079 ([1]; Streptococcus pyogenes 1079) [µg/mL] | MIC S. pneumo. 1016 ([2]; Streptococcus pneumoniae 1016) [µg/mL] | MIC S. pneumo. 1095 ([3]; Streptococcus pneumoniae 1095) [µg/mL] | MIC S. pneumo. 1175 ([4]; Streptococcus pneumoniae 1175) [µg/mL] | MIC H. influenzae 1218 ([5]; Haemophilus influenzae 1218) [µg/mL] | MIC S. pyogenes 1079 ([1]; S. pyogenes 1079 (ermB)) [µg/mL] | MIC S. pneumo. 1016 [2, 6] [µg/mL] | MIC S. pneumo. 1095 ([3]; S. pneumoniae 1095 (ermB)) [µg/mL] | MIC S. pneumo. 1175 ([4]; S. pneumoniae 1175 (mefA)) [µg/mL] | MIC H. influenzae 1218 [5, 7] [µg/mL] |
| --- | --- | --- | --- | --- | --- | --- | --- | --- | --- | --- |
| CCC1OC(=O)C(C)C(=O)C(C)C(OC2OC(C)CC(N(C)C)C2O)C(C)(OC)CC(C)C(=O)C(C)C2N(C3CN(Cc4ccc(OC)c5ncccc45)C3)C(=O)OC12C (stereo not drawn) [Example 1.70, 3-descladinosyl-11,12-dideoxy-6-O-methyl-3-oxo-12,11-(oxycarbonyl-(1-(8-methoxyquinoline-5-methyl)-azetidin-3-yl)-imino)-erythromycin A] | 2 (≈ 2.38 µM) | <0.063 | <0.063 | <0.063 | 1 (≈ 1.19 µM) |  |  |  |  |  |
| CCC1OC(=O)C(C)C(=O)C(C)C(OC2OC(C)CC(N(C)C)C2O)C(C)(OC)CC(C)C(=O)C(C)C2N(CC3CCCN3C(=O)c3cc4ncccn4n3)C(=O)OC12C (stereo not drawn) [10.53] |  |  |  |  |  | >64.00 | <0.06 | <0.06 | 0.12 (≈ 0.143 µM) | 1 (≈ 1.19 µM) |
| CCC1OC(=O)C(C)C(=O)C(C)C(OC2OC(C)CC(N(C)C)C2O)C(C)(OC)CC(C)C(=O)C(C)C2N(C3CN(S(=O)(=O)c4ccc(F)cc4)C3)C(=O)OC12C (stereo not drawn) [Example 3.09, 4-fluorobenzenesulfonyl] | 16 (≈ 19.4 µM) | <0.06 | <0.06 | 0.25 (≈ 0.303 µM) | 0.25 (≈ 0.303 µM) |  |  |  |  |  |
| CCC1OC(=O)C(C)C(=O)C(C)C(OC2OC(C)CC(N(C)C)C2O)C(C)(OC)CC(C)C(=O)C(C)C2N(CC3CN(Cc4cn5cccnc5n4)C3)C(=O)OC12C (stereo not drawn) [4.27] | >64.00 | <0.06 | >64.00 | 4 (≈ 4.92 µM) | 1 (≈ 1.23 µM) |  |  |  |  |  |
| CCC1OC(=O)C(C)C(=O)C(C)C(OC2OC(C)CC(N(C)C)C2O)C(C)(OC)CC(C)C(=O)C(C)C2N(CC3CCCN3C(=O)c3cc4cccnc4nc3C(F)(F)F)C(=O)OC12C (stereo not drawn) [10.40] |  |  |  |  |  | >64.00 | <0.06 | <0.06 | <0.06 | 2 (≈ 2.17 µM) |
| CCC1OC(=O)C(C)C(=O)C(C)C(OC2OC(C)CC(N(C)C)C2O)C(C)(OC)CC(C)C(=O)C(C)C2N(C3CN(Cc4c(OC)cnc5ncccc45)C3)C(=O)OC12C (stereo not drawn) [Example 1.72, 3-descladinosyl-11,12-dideoxy-6-O-methyl-3-oxo-12,11-(oxycarbonyl-(1-(3-methoxy-1,8-naphthyridine-4-methyl)-azetidin-3-yl)-imino)-erythromycin A] | <0.063 | <0.063 | <0.063 | <0.063 | 1 (≈ 1.19 µM) |  |  |  |  |  |
| CCC1OC(=O)C(C)C(=O)C(C)C(OC2OC(C)CC(N(C)C)C2O)C(C)(OC)CC(C)C(=O)C(C)C2N(C3CN(S(=O)(=O)c4cccc(-c5ncco5)c4)C3)C(=O)OC12C (stereo not drawn) [Example 3.65, 3-descladinosyl-11,12-dideoxy-6-O-methyl-3-oxo-12,11-(oxycarbonyl-(1-(3-(oxazol-2-yl)benzenesulfonyl)-azetidin-3-yl)-imino)-erythromycin A] | 1 (≈ 1.14 µM) | <0.06 | <0.06 | <0.06 | 0.12 (≈ 0.137 µM) |  |  |  |  |  |
| CCC1OC(=O)C(C)C(=O)C(C)C(OC2OC(C)CC(N(C)C)C2O)C(C)(OC)CC(C)C(=O)C(C)C2N(CC3CN(Cc4c[nH]c5cnccc45)C3)C(=O)OC12C (stereo not drawn) [4.19] | 64 (≈ 78.8 µM) | <0.06 | <0.06 | 1 (≈ 1.23 µM) | 0.5 (≈ 0.616 µM) |  |  |  |  |  |
| CCC1OC(=O)C(C)C(=O)C(C)C(OC2OC(C)CC(N(C)C)C2O)C(C)(OC)CC(C)C(=O)C(C)C2N(C3CN(S(=O)(=O)c4ccc(N5CCOCC5)c(F)c4)C3)C(=O)OC12C (stereo not drawn) [Example 3.46, 3-fluoro-4-morpholinobenzenesulfonyl] | 32 (≈ 35.1 µM) | <0.06 | 0.5 (≈ 0.549 µM) | <0.06 | 2 (≈ 2.2 µM) |  |  |  |  |  |
| CC[C@H]1OC(=O)[C@H](C)C(=O)[C@H](C)[C@@H](O[C@@H]2O[C@H](C)C[C@H](N(C)C)[C@H]2O)[C@](C)(OC)C[C@@H](C)C(=O)[C@H](C)[C@H]2N(CC3(O)CN(Cc4c[nH]c5ncccc45)C3)C(=O)O[C@]12C [7.04] |  |  |  |  |  | 32 (≈ 38.6 µM) | <0.06 | <0.06 | 1 (≈ 1.21 µM) | 0.5 (≈ 0.604 µM) |
| CCC1OC(=O)C(C)C(=O)C(C)C(OC2OC(C)CC(N(C)C)C2O)C(C)(OC)CC(C)C(=O)C(C)C2N(C3CN(S(=O)(=O)c4cccc(-c5cccnn5)c4)C3)C(=O)OC12C (stereo not drawn) [Example 3.72, 3-descladinosyl-11,12-dideoxy-4-O-methyl-3-oxo-12,11-(oxycarbonyl-(1-(3-(pyridazin-3-yl)benzenesulfonyl)-azetidin-3-yl)-imino)erythromycin A] | 1 (≈ 1.13 µM) | <0.06 | <0.06 | <0.06 | 1 (≈ 1.13 µM) |  |  |  |  |  |
| CCC1OC(=O)C(C)C(=O)C(C)C(OC2OC(C)CC(N(C)C)C2O)C(C)(OC)CC(C)C(=O)C(C)C2N(C3CN(Cc4cnc5ncccc5c4)C3)C(=O)OC12C (stereo not drawn) [Example 1.17, (1,8-naphthyridin-3-yl)methyl] | >64.00 | <0.06 | <0.06 | 0.25 (≈ 0.309 µM) | 0.12 (≈ 0.148 µM) |  |  |  |  |  |
| CCC1OC(=O)C(C)C(=O)C(C)C(OC2OC(C)CC(N(C)C)C2O)C(C)(OC)CC(C)C(=O)C(C)C2N(C3CN(S(=O)(=O)c4ccc(-c5ccc(Cl)nn5)cc4)C3)C(=O)OC12C (stereo not drawn) [Example 3.78] | 64 (≈ 69.5 µM) | <0.06 | <0.06 | <0.06 | 4 (≈ 4.35 µM) |  |  |  |  |  |
| CCC1OC(=O)C(C)C(=O)C(C)C(OC2OC(C)CC(N(C)C)C2O)C(C)(OC)CC(C)C(=O)C(C)C2N(CC3CN(Cc4cccc(C#N)c4)C3)C(=O)OC12C (stereo not drawn) [4.08] | >64.00 | <0.06 | 32 (≈ 40.2 µM) | <0.06 | 0.12 (≈ 0.151 µM) |  |  |  |  |  |
| CCC1OC(=O)C(C)C(=O)C(C)C(OC2OC(C)CC(N(C)C)C2O)C(C)(OC)CC(C)C(=O)C(C)C2N(C3CN(Cc4n[nH]c5ccccc45)C3)C(=O)OC12C (stereo not drawn) [Example 1.29, 3-descladinosyl-11,12-dideoxy-6-O-methyl-3-oxo-12,11-(oxycarbonyl-(1-((indazol-3-yl)-methyl)-azetidin-3-yl)-imino)-erythromycin A] | 2 (≈ 2.51 µM) | <0.06 | <0.06 | 1 (≈ 1.25 µM) | 0.5 (≈ 0.627 µM) |  |  |  |  |  |
